For two molecules, pKa, logD and logP results are on record in ChEMBL document CHEMBL1123372, “6,7-Dichloro-1-(3,4,5-trimethoxybenzyl)-1,2,3,4-tetrahydroisoquinoline . A structurally novel beta-adrenergic receptor blocking agent” (J Med Chem, 1986).

Assay type in all cases: physicochemical
Data set [1] can be described thus: Compound was evaluated for pKa by titration of the compounds in 1:2 methyl alcohol and water. The conditions noted are these: read-out: pKa app.
Data set [2] in a line: Compound was evaluated for distribution coefficient. The conditions noted are these: octanol/water.
A short description of data set [3]: Partition coefficient (logP). The conditions noted are these: octanol/water.
Data set [4] in a line: Compound was evaluated for pKa by titration of the compounds in 1:2 methyl alcohol and water. The conditions noted are these: read-out: pKa app.

What is called pKa is the pH at which an ionisable group is half protonated. As usually defined, the logD is the decadic logarithm of the distribution of all forms, ionised or not, between an organic phase and buffer at a given pH. One may read the logP as the decadic logarithm of the partition coefficient of the neutral form, usually between octanol and water. The low end stands for a more hydrophilic compound, the high end for a more lipophilic compound. Consider `CC(C)NCC(O)c1ccc(Cl)c(Cl)c1` (stereo unspecified) [DICHLOROISOPROTERENOL], for which, in data set [1], the pKa is 8.7. The molecule further showed a logD in data set [2] of 1.26. In data set [3], the logP was determined as 2.55.

On to `COc1cc(C[C@@H]2NCCc3cc(O)c(O)cc32)cc(OC)c1OC` [TRETOQUINOL], for which, in data set [2], the log distribution coefficient (logD) is 1.79. Moreover, the pKa in data set [4] worked out at 7.6. In data set [3], this molecule showed a logP of 2.23.
